Measured values published in patent US20220370486A1, “COMBINATION TREATMENT OF SYSTEMIC FUNGAL INFECTIONS” (The Board of Trustees of the University of Illinois, priority 2019, published 2022).
Like-named read-outs stand apart in the source and are kept apart here.

Experiments:
yeast cells = assay: Antifungal activity after ergosterol pre-complexation of the sponge; format: cell-based; conditions: sponge pre-complexed with ergosterol
Text: Anderson, T. M. et al., Nat Chem Biol 2014, 10 (5), 400-6. […] Davis, S. A., et al., Nat Chem Biol 2015, 11 (7), 481-7. To test whether C2′epiAmB primarily kills cells via the same sterol sponge mechanism, the C2′epiAmB sponge was similarly pre-complexed with ergosterol. […] Thus, C2′epiAmB similarly kills yeast primarily via sterol binding, and, by extension, the new compounds targeted in this application are expected to have a similar barrier to fungal resistance that has been observed for the past 50+years with AmB.

[1] = Intravenous toxicity in rats; conditions: IV, 2, 10, and 17.5 mg/kg
[2] = UV-Vis and PCA based sterol sponge binding assay; conditions: apparent KD, sterol sponge aggregates in vitro
Text: However, an alternative method was developed for reproducible formation of homogenous AmB and C2′epiAmB sterol sponge aggregates in vitro. Using these preparations, a quantitative UV-Vis and Principle Component (PCA) based assay for determining the apparent Kis for the binding of AmB and C2′epiAmB to ergosterol and cholesterol (FIGS. 2A-2D) was developed.

A. fumigatus 1077391 = assay: Checkerboard broth microdilution (CLSI); format: cell-based; conditions: isolate 1077391
Experimental: (§1) Isolates were tested against varying concentrations of amphotericin B and C2′epiAmB (range, 0.06 to 4 mg/L) and combined with fluconazole (range, 0.12 to 128 mg/L) or ketoconazole (range 0.008 to 8 mg/L) or voriconazole (range, 0.004 to 4 mg/L) using a checkerboard grid design following the Clinical and Laboratory Standards Institute (CLSI) broth microdilution method (M23Ed5).

[3] = test system: C. parapsilosis ATCC 22019; assay: Checkerboard broth microdilution (CLSI); format: cell-based; conditions: isolate ATCC 22019
Experimental: as §1

C. albicans 967374 = assay: Checkerboard broth microdilution (CLSI); format: cell-based; conditions: isolate 967374
Experimental: as §1

[4] = test system: A. fumigatus ATCC MYA-3626; assay: Checkerboard broth microdilution (CLSI); format: cell-based; conditions: isolate ATCC MYA-3626; for MIC: single agent
Experimental: as §1

C. glabrata 1046695 = assay: Checkerboard broth microdilution (CLSI); format: cell-based; conditions: isolate 1046695; for MIC: single agent
Experimental: as §1

A. flavus ATCC 204304 = assay: Checkerboard broth microdilution (CLSI); format: cell-based; conditions: isolate ATCC 204304
Experimental: as §1

C. parapsilosis 1048737 = assay: Checkerboard broth microdilution (CLSI); format: cell-based; conditions: isolate 1048737; for MIC: single agent
Experimental: as §1

C. auris 1081160 = assay: Checkerboard broth microdilution (CLSI); format: cell-based; conditions: isolate 1081160; for MIC: single agent
Experimental: as §1

F. solani SC 1047542 = assay: Checkerboard broth microdilution (CLSI); format: cell-based; conditions: isolate 1047542
Experimental: as §1

C. krusei 975691 = assay: Checkerboard broth microdilution (CLSI); format: cell-based; conditions: isolate 975691
Experimental: as §1

C. tropicalis 1046709 = assay: Checkerboard broth microdilution (CLSI); format: cell-based; conditions: isolate 1046709
Experimental: as §1

F. oxysporum SC 1087597 = assay: Checkerboard broth microdilution (CLSI); format: cell-based; conditions: isolate 1087597
Experimental: as §1

A. flavus SC 1085986 = assay: Checkerboard broth microdilution (CLSI); format: cell-based; conditions: isolate 1085986
Experimental: as §1

C. krusei ATCC 6258 = assay: Checkerboard broth microdilution (CLSI); format: cell-based; conditions: isolate ATCC 6258
Experimental: as §1

primary hREC = assay: Toxicity to primary hREC; format: cell-based, human
Text: This key discovery opened a path to the rational development of a non-toxic AmB variant. To probe its predicted role in sterol binding, the hydroxyl group was synthetically deleted at the C2′ position on the mycosamine appendage.
In each case, C2′epiAmB is non-toxic to human red blood cells, primary hREC, mice, and rats up to the highest dose tested.

C[C@@H]1[C@H](O)[C@@H](C)/C=C/C=C/C=C/C=C/C=C/C=C/C=C/[C@H](OC2O[C@H](C)[C@@H](O)[C@H](N)[C@H]2O)CC2O[C@](O)(C[C@@H](O)C[C@@H](O)[C@H](O)CC[C@@H](O)C[C@@H](O)CC(=O)O[C@H]1C)C[C@H](O)[C@H]2C(=O)O (stereo partly drawn) [C2′epiAmB, C2′epi amphotericin B]
change of potency upon ergosterol pre-complexation (yeast cells): same reduction in potency
mortality [1]: no mortality
Kd ([2]; read-out: KD,chol): > 2 µM
Kd ([2]; read-out: KD,erg): 0.15 µM
MIC (A. fumigatus 1077391; Aspergillus fumigatus, single agent): 4 mg/L
MIC when added 1 log2 unit lower of azoles' MIC (A. fumigatus 1077391; with ketoconazole): 0.06 mg/L
MIC when added 1 log2 unit lower of azoles' MIC (A. fumigatus 1077391; with voriconazole): >4 mg/L
MIC ([3]; Lodderomyces parapsilosis, ATCC22019, single agent, read-out: MIC): 1 mg/L
MIC ([3]; single agent): 2 mg/L
MIC when added 1 log2 unit lower of azoles' MIC ([3]; with fluconazole): 1 mg/L
MIC when added 1 log2 unit lower of azoles' MIC ([3]; with ketoconazole): 0.5 mg/L
MIC when added 1 log2 unit lower of azoles' MIC ([3]; with voriconazole): 1 mg/L
MIC (C. albicans 967374; Candida albicans, single agent, read-out: MIC): 2 mg/L
MIC when added 1 log2 unit lower of azoles' MIC (C. albicans 967374; with fluconazole): 2 mg/L
MIC when added 1 log2 unit lower of azoles' MIC (C. albicans 967374; with ketoconazole): 1 mg/L
MIC when added 1 log2 unit lower of azoles' MIC (C. albicans 967374; with voriconazole): 1 mg/L
MIC ([4]; Aspergillus fumigatus, read-out: MIC): > 4 mg/L
MIC [4]: 4 mg/L
MIC when added 1 log2 unit lower of azoles' MIC ([4]; with ketoconazole): 0.06 mg/L
MIC when added 1 log2 unit lower of azoles' MIC ([4]; with voriconazole): >4 mg/L
MIC (C. glabrata 1046695; Nakaseomyces glabratus, read-out: MIC): 1 mg/L
MIC (C. glabrata 1046695): 2 mg/L
MIC when added 1 log2 unit lower of azoles' MIC (C. glabrata 1046695; with fluconazole): 2 mg/L
MIC when added 1 log2 unit lower of azoles' MIC (C. glabrata 1046695; with ketoconazole): 1 mg/L
MIC when added 1 log2 unit lower of azoles' MIC (C. glabrata 1046695; with voriconazole): 1 mg/L
MIC (A. flavus ATCC 204304; Aspergillus flavus, ATCC204304, single agent): 2 mg/L
MIC when added 1 log2 unit lower of azoles' MIC (A. flavus ATCC 204304; with ketoconazole): 2 mg/L
MIC when added 1 log2 unit lower of azoles' MIC (A. flavus ATCC 204304; with voriconazole): 1 mg/L
MIC (C. parapsilosis 1048737; Lodderomyces parapsilosis, read-out: MIC): 1 mg/L
MIC (C. parapsilosis 1048737): 2 mg/L
MIC when added 1 log2 unit lower of azoles' MIC (C. parapsilosis 1048737; with fluconazole): 1 mg/L
MIC when added 1 log2 unit lower of azoles' MIC (C. parapsilosis 1048737; with ketoconazole): 0.5 mg/L
MIC when added 1 log2 unit lower of azoles' MIC (C. parapsilosis 1048737; with voriconazole): 0.5 mg/L
MIC (C. auris 1081160; Candidozyma auris, read-out: MIC): 2 mg/L
MIC (C. auris 1081160): 4 mg/L
MIC when added 1 log2 unit lower of azoles' MIC (C. auris 1081160; with fluconazole): 0.06 mg/L
MIC when added 1 log2 unit lower of azoles' MIC (C. auris 1081160; with ketoconazole): 2 mg/L
MIC when added 1 log2 unit lower of azoles' MIC (C. auris 1081160; with voriconazole): 2 mg/L
MIC (F. solani SC 1047542; Fusarium solani, single agent): > 4 mg/L
MIC when added 1 log2 unit lower of azoles' MIC (F. solani SC 1047542; with ketoconazole): 0.06 mg/L
MIC when added 1 log2 unit lower of azoles' MIC (F. solani SC 1047542; with voriconazole): >4 mg/L
MIC (C. krusei 975691; Pichia kudriavzevii, single agent, read-out: MIC): 2 mg/L
MIC when added 1 log2 unit lower of azoles' MIC (C. krusei 975691; with fluconazole): 2 mg/L
MIC when added 1 log2 unit lower of azoles' MIC (C. krusei 975691; with ketoconazole): 2 mg/L
MIC when added 1 log2 unit lower of azoles' MIC (C. krusei 975691; with voriconazole): 2 mg/L
MIC (C. tropicalis 1046709; Candida tropicalis, single agent): 1 mg/L
MIC when added 1 log2 unit lower of azoles' MIC (C. tropicalis 1046709; with fluconazole): 1 mg/L
MIC when added 1 log2 unit lower of azoles' MIC (C. tropicalis 1046709; with ketoconazole): 1 mg/L
MIC when added 1 log2 unit lower of azoles' MIC (C. tropicalis 1046709; with voriconazole): 1 mg/L
MIC (F. oxysporum SC 1087597; Fusarium oxysporum, single agent): > 4 mg/L
MIC when added 1 log2 unit lower of azoles' MIC (F. oxysporum SC 1087597; with ketoconazole): 0.06 mg/L
MIC when added 1 log2 unit lower of azoles' MIC (F. oxysporum SC 1087597; with voriconazole): >4 mg/L
MIC (A. flavus SC 1085986; Aspergillus flavus, single agent): 4 mg/L
MIC when added 1 log2 unit lower of azoles' MIC (A. flavus SC 1085986; with ketoconazole): >4 mg/L
MIC when added 1 log2 unit lower of azoles' MIC (A. flavus SC 1085986; with voriconazole): >4 mg/L
MIC (C. krusei ATCC 6258; Pichia kudriavzevii, ATCC6258, single agent, read-out: MIC): 2 mg/L
MIC (C. krusei ATCC 6258; single agent): 1 mg/L
MIC when added 1 log2 unit lower of azoles' MIC (C. krusei ATCC 6258; with fluconazole): 2 mg/L
MIC when added 1 log2 unit lower of azoles' MIC (C. krusei ATCC 6258; with ketoconazole): 1 mg/L
MIC when added 1 log2 unit lower of azoles' MIC (C. krusei ATCC 6258; with voriconazole): 1 mg/L
toxicity to primary hREC (primary hREC): non-toxic
